Drawing on patent US20250179066A1, “ZWITTERIONIC ANTIBACTERIAL COMPOUNDS” (Hoffmann-La Roche Inc., priority 2022, published 2025), this text covers IC90 for 15 compounds.

Where a name gives a salt, the structure may show the parent alone.

The first experiment relates to Acinetobacter baumannii ATCC17961. Kind of experiment: Antimicrobial susceptibility testing: 90% growth inhibitory concentration (IC90) determination. The class given is cell-based. As to conditions: 90% growth inhibitory concentration against Acinetobacter baumannii ATCC17961, Iso-Sensitest broth, OD 600 nm over 16 h; read-out: ATCC 17961 IC90. How it is done:
The in vitro antimicrobial activity of the compounds was determined according to the following procedure: The assay used a 10-points Iso-Sensitest broth medium to measure quantitatively the in vitro activity of the compounds against Acinetobacter baumannii ATCC17961. Stock compounds in DMSO were serially twofold diluted (e.g. range from 10 to 0.0195 μM final concentration) in 384 wells microtiter plates and inoculated with 49 μL the bacterial suspension in Iso-Sensitest medium to have a final cell concentration of ˜5×10^(5) CFU/mL in a final volume/well of 50 μL/well. Microtiter plates were incubated at 35±2° C. Bacterial cell growth was determined with the measurement of optical density at λ=600 nm each min over a time course of 16 h. Growth inhibition was calculated during the logarithmic growth of the bacterial cells with determination of the concentration inhibiting 50% (IC50) and 90% (IC90) of the growth. Table 1 provides the 90% growth inhibitory concentrations (IC90) in micromoles per liter of the compounds of present invention obtained against the strain Acinetobacter baumannii ATCC17961.
In the case of `Cn1c(-c2cn(-c3ccc(N)cn3)nc2C(F)(F)F)cnc1C(=O)Nc1ccc(C(=O)N2CCN(C(=O)CCC[N+](CCCCN)(CCCCN)CC(=O)O)CC2)c(Cl)c1` [Example 20, bis(4-aminobutyl)-[4-[4-[4-[[5-[1-(5-amino-2-pyridyl)-3-(trifluoromethyl)pyrazol-4-yl]-1-methyl-imidazole-2-carbonyl]amino]-2-chloro-benzoyl]piperazino]-4-keto-butyl]-(carboxymethyl)ammonium. 1:1 2,2,2-trifluoroacetic acid. 1:1 2,2,2-trifluoroacetate], the IC90 – broadly, the concentration at which the effect reaches the 90% level – stood at 300 nM.

Staying with this experiment, now noted: Acinetobacter baumannii, ATCC17961, 16 h, 90% growth inhibitory concentration against Acinetobacter baumannii ATCC17961, Iso-Sensitest broth, OD 600 nm over 16 h; read-out: ATCC 17961 IC90.
With `Cn1c(-c2cn(-c3ccc(N)cc3F)nc2C(F)(F)F)cnc1C(=O)Nc1ccc(C(=O)N2CCN(C(=O)C3CC[N+](CCCO)(CC(=O)O)CC3)CC2)c(Cl)c1` (stereo not drawn) [Example 159, 2-[4-[4-[4-[[5-[1-(4-amino-2-fluoro-phenyl)-3-(trifluoromethyl)pyrazol-4-yl]-1-methyl-imidazole-2-carbonyl]amino]-2-chloro-benzoyl]piperazine-1-carbonyl]-1-(3-hydroxypropyl)piperidin-1-ium-1-yl]acetic acid. 1:1 2,2,2-trifluoroacetate], the IC90 was 647 nM.
Same read-out and setting: to `Cn1c(-c2cn(-c3ccc(N)cn3)nc2C(F)(F)F)cnc1C(=O)Nc1ccc(C(=O)N2CCN(C(=O)C3CC[N+](CC(=O)O)(CC4CNC4)CC3)C3(CC3)C2)c(Cl)c1` (stereo not drawn) [Example 86, 2-[4-[7-[4-[[5-[1-(5-amino-2-pyridyl)-3-(trifluoromethyl)pyrazol-4-yl]-1-methyl-imidazole-2-carbonyl]amino]-2-chloro-benzoyl]-4,7-diazaspiro[2.5]octane-4-carbonyl]-1-(azetidin-3-ylmethyl)piperidin-1-ium-1-yl]acetic acid. 1:1 formate] belongs 1370 nM; to `Cn1c(-c2cn(-c3ccc4[nH]c(CO)cc4n3)nc2C(F)(F)F)cnc1C(=O)Nc1ccc(C(=O)N2CCN(C(=O)[C@H]3CC[N@+](CC(=O)O)(CC4CNC4)CC3)CC2)c(Cl)c1` [Example 33, cis-2-[1-(azetidin-3-ylmethyl)-4-[4-[2-chloro-4-[[1-methyl-5-[1-(2-methylol-1H-pyrrolo[3,2-b]pyridin-5-yl)-3-(trifluoromethyl)pyrazol-4-yl]imidazole-2-carbonyl]amino]benzoyl]piperazine-1-carbonyl]piperidin-1-ium-1-yl]acetic acid. 1:1 2,2,2-trifluoroacetate], 380 nM; to `Cn1c(-c2cn(-c3ccc4c(ccn4CCN)n3)nc2C(F)(F)F)cnc1C(=O)Nc1ccc(C(=O)N2CCN(C(=O)[C@H]3CC[N@+](CC(=O)O)(CC4CNC4)CC3)CC2)c(Cl)c1` [Example 190, cis-2-[4-[4-[4-[[5-[1-[1-(2-aminoethyl)pyrrolo[3,2-b]pyridin-5-yl]-3-(trifluoromethyl)pyrazol-4-yl]-1-methyl-imidazole-2-carbonyl]amino]-2-chloro-benzoyl]piperazine-1-carbonyl]-1-(azetidin-3-ylmethyl)piperidin-1-ium-1-yl]acetic acid. 1:1 hydrogen chloride. 1:1 chloride], 199 nM.
Consider `Cn1c(-c2cn(-c3ccc4occc4n3)nc2C(F)(F)F)cnc1C(=O)Nc1ccc(C(=O)N2CCN(C(=O)C3CC[N+](CC(=O)O)(CC4CNC4)CC3)CC2)c(Cl)c1` (stereo not drawn) [Example 63, 2-[1-(azetidin-3-ylmethyl)-4-[4-[2-chloro-4-[[5-[1-furo[3,2-b]pyridin-5-yl-3-(trifluoromethyl)pyrazol-4-yl]-1-methyl-imidazole-2-carbonyl]amino]benzoyl]piperazine-1-carbonyl]piperidin-1-ium-1-yl]acetic acid. 1:1 2,2,2-trifluoroacetate], for which the 90% effect concentration (IC90) was 680 nM.
Turning to `Cn1c(-c2cn(-c3ccc(N)cc3F)nc2C(F)(F)F)cnc1C(=O)Nc1ccc(C(=O)N2CCN(C(=O)C3CC[N+](CCCC(=O)O)(CC4CNC4)CC3)CC2)c(Cl)c1` (stereo not drawn) [Example 181, 4-[4-[4-[4-[[5-[1-(4-amino-2-fluoro-phenyl)-3-(trifluoromethyl)pyrazol-4-yl]-1-methyl-imidazole-2-carbonyl]amino]-2-chloro-benzoyl]piperazine-1-carbonyl]-1-(azetidin-3-ylmethyl)piperidin-1-ium-1-yl]butanoic acid;formate], the IC90 was 244 nM.
Same read-out and setting: the same measure for `Cn1c(-c2cn(-c3ccc4[nH]c(CCN)cc4n3)nc2C(F)(F)F)cnc1C(=O)Nc1ccc(C(=O)N2CCN(C(=O)[C@H]3CC[N@+](CC(=O)O)(CC4CNC4)CC3)CC2)c(Cl)c1` [Example 129, cis-2-[4-[4-[4-[[5-[1-[2-(2-aminoethyl)-1H-pyrrolo[3,2-b]pyridin-5-yl]-3-(trifluoromethyl)pyrazol-4-yl]-1-methyl-imidazole-2-carbonyl]amino]-2-chloro-benzoyl]piperazine-1-carbonyl]-1-(azetidin-3-ylmethyl)piperidin-1-ium-1-yl]acetic acid; chloride]: 355 nM.
Same read-out and setting: to `Cn1c(-c2cn(-c3ccc(N4CCNCC4)cn3)nc2C(F)(F)F)cnc1C(=O)Nc1ccc(C(=O)N2CCN(C(=O)C3CC[N+](CC(=O)O)(CC4CNC4)CC3)CC2)c(Cl)c1` (stereo not drawn) [Example 3, 2-[1-(azetidin-3-ylmethyl)-4-[4-[2-chloro-4-[[1-methyl-5-[1-(5-piperazino-2-pyridyl)-3-(trifluoromethyl)pyrazol-4-yl]imidazole-2-carbonyl]amino]benzoyl]piperazine-1-carbonyl]piperidin-1-ium-1-yl]acetic acid. 1:1 2,2,2-trifluoroacetic acid. 1:1 2,2,2-trifluoroacetate] belongs 390 nM; to `Cn1c(-c2cn(-c3ccc4[nH]c([C@@H](O)CO)cc4n3)nc2C(F)(F)F)cnc1C(=O)Nc1ccc(C(=O)N2CCN(C(=O)[C@H]3CC[N@+](CC(=O)O)(CC4CNC4)CC3)CC2)c(Cl)c1` [Example 106, cis-2-[1-(azetidin-3-ylmethyl)-4-[4-[2-chloro-4-[[5-[1-[2-[(1R)-1,2-dihydroxyethyl]-1H-pyrrolo[3,2-b]pyridin-5-yl]-3-(trifluoromethyl)pyrazol-4-yl]-1-methyl-imidazole-2-carbonyl]amino]benzoyl]piperazine-1-carbonyl]piperidin-1-ium-1-yl]acetic acid;chloride], 611 nM.
On the same count and under the same terms, the same measure for `Cn1c(-c2cn(-c3ccc(N)cn3)nc2C(F)(F)F)cnc1C(=O)Nc1ccc(C(=O)N2CCN(C(=O)[C@@H](N)CCCCNCC(=O)O)CC2)c(Cl)c1` [Example 81, 2-[[(5S)-amino-6-[4-[4-[[5-[1-(5-amino-2-pyridyl)-3-(trifluoromethyl)pyrazol-4-yl]-1-methyl-imidazole-2-carbonyl]amino]-2-chloro-benzoyl]piperazino]-6-keto-hexyl]amino]acetic acid. 1:1 2,2,2-trifluoroacetic acid]: 1210 nM; for `Cn1c(-c2cn(-c3ccc(NCCN)cn3)nc2C(F)(F)F)cnc1C(=O)Nc1ccc(C(=O)N2CCN(C(=O)C3CC[N+](CC(=O)O)(CC4CNC4)CC3)CC2)c(Cl)c1` (stereo not drawn) [Example 12, 2-[4-[4-[4-[[5-[1-[5-(2-aminoethylamino)-2-pyridyl]-3-(trifluoromethyl)pyrazol-4-yl]-1-methyl-imidazole-2-carbonyl]amino]-2-chloro-benzoyl]piperazine-1-carbonyl]-1-(azetidin-3-ylmethyl)piperidin-1-ium-1-yl]acetic acid. 1:1 2,2,2-trifluoroacetic acid. 1:1 2,2,2-trifluoroacetate]: 180 nM.
Take `Cn1c(-c2cn(-c3ccc(NCCCN)cc3F)nc2C(F)(F)F)cnc1C(=O)Nc1ccc(C(=O)N2CCN(C(=O)[C@H]3CC[N@+](CC(=O)O)(CC4CNC4)CC3)CC2)c(Cl)c1` [Example 186, cis-2-[4-[4-[4-[[5-[1-[4-(3-aminopropylamino)-2-fluoro-phenyl]-3-(trifluoromethyl)pyrazol-4-yl]-1-methyl-imidazole-2-carbonyl]amino]-2-chloro-benzoyl]piperazine-1-carbonyl]-1-(azetidin-3-ylmethyl)piperidin-1-ium-1-yl]acetic Acid.1:1 formate]: the IC90 stood at 160 nM.
`Cn1c(-c2cn(-c3cccc(N)n3)nc2C(F)(F)F)cnc1C(=O)Nc1ccc(C(=O)N2CCN(C(=O)C3CC[N+](CC(=O)O)(CC4CNC4)CC3)CC2)c(Cl)c1` (stereo not drawn) [Example 56, 2-[4-[4-[4-[[5-[1-(6-amino-2-pyridyl)-3-(trifluoromethyl)pyrazol-4-yl]-1-methyl-imidazole-2-carbonyl]amino]-2-chloro-benzoyl]piperazine-1-carbonyl]-1-(azetidin-3-ylmethyl)piperidin-1-ium-1-yl]acetic acid. 1:1 2,2,2-trifluoroacetate]: the IC90 is 560 nM.
`Cn1c(-c2cn(-c3ccc(NCCN)cn3)nc2C(F)(F)F)cnc1C(=O)Nc1ccc(C(=O)N2CCN(C(=O)CCC[N+](CCCCN)(CCCCN)CC(=O)O)CC2)c(Cl)c1` [Example 36, bis(4-aminobutyl)-[4-[4-[4-[[5-[1-[5-(2-aminoethylamino)-2-pyridyl]-3-(trifluoromethyl)pyrazol-4-yl]-1-methyl-imidazole-2-carbonyl]amino]-2-chloro-benzoyl]piperazino]-4-keto-butyl]-(carboxymethyl)ammonium. 1:2 2,2,2-trifluoroacetic acid. 1:1 2,2,2-trifluoroacetate]: the IC90 came out at 420 nM.
